Laboratory results reported in ChEMBL document CHEMBL4828751, “Discovery of novel tubulin/HDAC dual-targeting inhibitors with strong antitumor and antiangiogenic potency” (Eur J Med Chem, 2021).
The source made the active and inactive calls. No cut-off for these calls is given here.

Columns and labels:
MGC-803 [1] = test: Induction of apoptosis in human MGC-803 cells assessed as increase in cleaved Caspase-3 expression incubated for 24 hrs by Western blot analysis; assay type: functional, cell-based; conditions: dose 7.5-30 nM
MGC-803 [2] = test: Induction of apoptosis in human MGC-803 cells assessed as increase in Caspase-9 expression incubated for 24 hrs by Western blot analysis; assay type: functional, cell-based; conditions: dose 7.5-30 nM
MGC-803 [3] = test: Induction of apoptosis in human MGC-803 cells assessed as increase in cleaved PARP expression incubated for 24 hrs by Western blot analysis; assay type: functional, cell-based
MGC-803 [4] = test: Induction of cell cycle arrest in human MGC-803 cells assessed as accumulation at S phase at 15 nM incubated for 24 hrs by propidium iodide staining based flow cytometry (reference value: 17.3 %); assay type: functional
MGC-803 [5] = test: Induction of mitochondrial membrane potential loss in human MGC-803 cells after 48 hrs by JC-1 staining based flow cytometric analysis; assay type: functional, cell-based; conditions: dose 7.5-30 nM
MGC-803 [6] = test: Induction of apoptosis in human MGC-803 cells assessed as necrotic cells at 15 nM measured after 48 hrs by Annexin V-APC/PI double staining based flow cytometry assay (reference value: 0.57 %); assay type: functional, cell-based
MGC-803 [7] = test: Induction of cell cycle arrest in human MGC-803 cells assessed as accumulation at S phase at 7.5 nM incubated for 24 hrs by propidium iodide staining based flow cytometry (reference value: 17.3 %); assay type: functional
MGC-803 [8] = test: Down regulation of p21 expression in human MGC-803 cells at 7.5 to 30 nM measured after 24 hrs by Western blot analysis; assay type: functional, cell-based; conditions: dose 7.5-30 nM
MGC-803 [9] = test: Induction of apoptosis in human MGC-803 cells assessed as viable cells at 30 nM measured after 48 hrs by Annexin V-APC/PI double staining based flow cytometry assay (reference value: 92.1 %); assay type: functional, cell-based
MGC-803 [10] = test: Antitumor activity against CMTPX- labeled human MGC-803 cells xenografted in zebrafish assessed as inhibition of tumor metastasis measured after 72 hrs by fluorescence microscopic analysis; assay type: functional, cell-based; conditions: dose 25-100 nM
A549 = test: Antiproliferative activity against human A549 cells assessed as cell growth inhibition after 72 hrs by SRB assay; assay type: functional, cell-based; conditions: A549, 72 h
MGC-803 [11] = test: Antitumor activity against CMTPX- labeled human MGC-803 cells xenografted in zebrafish assessed as inhibition of tumor growth measured after 72 hrs by fluorescence microscopic analysis; assay type: functional, cell-based; conditions: dose 25-100 nM
MGC-803 [12] = test: Induction of mitochondrial membrane potential loss in human MGC-803 cells at 30 nM after 48 hrs by JC-1 staining based flow cytometric analysis (reference value: 86 %); assay type: functional
MGC-803 [13] = test: Induction of ROS generation in human MGC-803 cells assessed as increase in intracellular ROS level incubated for 24 hrs by DCFH-DA staining based flow cytometric analysis; assay type: functional, cell-based; conditions: dose 7.5-30 nM
MGC-803 [14] = test: Induction of ROS generation in human MGC-803 cells assessed as intracellular ROS level at 30 nM incubated for 24 hrs by DCFH-DA staining based flow cytometric analysis (reference value: 2.72 %); assay type: functional
Tubulin (Homo sapiens) [15] = target: T1, Tubulin (Homo sapiens) (UniProt P68371+Q9H4B7+P0DPH7+P68366+Q13509+Q71U36+P04350+Q3ZCM7+P07437+P68363+Q9BQE3+Q6PEY2+Q13885+Q9BVA1+Q9BUF5); test: Inhibition of tubulin polymerization in human MGC-803 cells assessed as change in shape of nucleus at 2 to 7.5 nM measured after 48 hrs by Hoechst staining based confocal microscopy analysis; assay type: cell-based; conditions: dose 2-7.5 nM
MCF7 = test: Antiproliferative activity against human MCF7 cells assessed as cell growth inhibition after 72 hrs by SRB assay; assay type: functional, cell-based; conditions: MCF7, 72 h
MGC-803 [16] = test: Down regulation of Pcdc2 expression in human MGC-803 cells at 7.5 to 30 nM measured after 24 hrs by Western blot analysis; assay type: functional, cell-based; conditions: dose 7.5-30 nM
MGC-803 [17] = test: Induction of cell cycle arrest in human MGC-803 cells assessed as accumulation at S phase at 30 nM incubated for 24 hrs by propidium iodide staining based flow cytometry (reference value: 17.3 %); assay type: functional
MGC-803 [18] = test: Induction of cell cycle arrest in human MGC-803 cells assessed as accumulation at G2/M phase incubated for 24 hrs by propidium iodide staining based flow cytometry; assay type: functional; conditions: dose 7.5-30 nM
MGC-803 [19] = test: Induction of apoptosis in human MGC-803 cells assessed as necrotic cells at 7.5 nM measured after 48 hrs by Annexin V-APC/PI double staining based flow cytometry assay (reference value: 0.57 %); assay type: functional, cell-based
MGC-803 [20] = test: Induction of apoptosis in human MGC-803 cells assessed as increase in PARP expression incubated for 24 hrs by Western blot analysis; assay type: functional, cell-based; conditions: dose 7.5-30 nM
MGC-803 [21] = test: Induction of apoptosis in human MGC-803 cells assessed as increase in cleaved Caspase-9 expression incubated for 24 hrs by Western blot analysis; assay type: functional, cell-based; conditions: dose 7.5-30 nM
MGC-803 [22] = test: Induction of apoptosis in human MGC-803 cells assessed as increase in Caspase-3 expression incubated for 24 hrs by Western blot analysis; assay type: functional, cell-based; conditions: dose 7.5-30 nM
Tubulin (Homo sapiens) [23] = target: T1, Tubulin (Homo sapiens); test: Inhibition of tubulin polymerization in human MGC-803 cells; assay type: cell-based
MGC-803 [24] = test: Induction of apoptosis in human MGC-803 cells assessed as necrotic cells at 30 nM measured after 48 hrs by Annexin V-APC/PI double staining based flow cytometry assay (reference value: 0.57 %); assay type: functional, cell-based
MGC-803 [25] = test: Induction of apoptosis in human MGC-803 cells assessed as early apoptotic cells at 15 nM measured after 48 hrs by Annexin V-APC/PI double staining based flow cytometry assay (reference value: 1.31 %); assay type: functional, cell-based
THP-1 = test: Cytotoxicity against human THP-1 cells assessed as reduction in cell viability; assay type: cell-based
MGC-803 [26] = test: Inhibition of cell migration in human MGC-803 cells assessed as decrease in wound healing rate at 7.5 to 30 nM measured after 48 hrs by wound healing assay; assay type: functional, cell-based; conditions: dose 7.5-30 nM
MGC-803 [27] = test: Induction of apoptosis in human MGC-803 cells assessed as late apoptotic cells at 15 nM measured after 48 hrs by Annexin V-APC/PI double staining based flow cytometry assay (reference value: 1.05 %); assay type: functional, cell-based
MGC-803 [28] = test: Induction of apoptosis in human MGC-803 cells assessed as viable cells at 15 nM measured after 48 hrs by Annexin V-APC/PI double staining based flow cytometry assay (reference value: 92.1 %); assay type: functional, cell-based
MGC-803 [29] = test: Induction of ROS generation in human MGC-803 cells assessed as intracellular ROS level at 15 nM incubated for 24 hrs by DCFH-DA staining based flow cytometric analysis (reference value: 2.72 %); assay type: functional
MGC-803 [30] = test: Induction of apoptosis in human MGC-803 cells assessed as late apoptotic cells at 7.5 nM measured after 48 hrs by Annexin V-APC/PI double staining based flow cytometry assay (reference value: 1.05 %); assay type: functional, cell-based
MGC-803 [31] = test: Induction of apoptosis in human MGC-803 cells assessed as early apoptotic cells at 7.5 nM measured after 48 hrs by Annexin V-APC/PI double staining based flow cytometry assay (reference value: 1.31 %); assay type: functional, cell-based
L02 = test: Cytotoxicity against human L02 cells assessed as reduction in cell viability; assay type: cell-based
MGC-803 [32] = test: Induction of G2/M phase cell cycle arrest in human MGC-803 cells assessed as upregulation of cyclinB1 protein expression at 7.5 to 30 nM measured after 48 hrs by western blot analysis; assay type: functional, cell-based; conditions: dose 7.5-30 nM
Tubulin = test: Inhibition of tubulin polymerization (unknown origin) measured after 1 min by fluorescence assay; assay type: protein-complex assay, Homo sapiens; conditions: read-out: IC50

COc1ccc(/C=C\c2cc(OC)c(OC)c(OC)c2)cc1/C=C/C(=O)Nc1ccccc1N
Activity (MGC-803 [1]): Dose-Dependent Effect
Activity (MGC-803 [2]): Dose-Dependent Effect
Activity (MGC-803 [3]): Dose-Dependent Effect
Activity (MGC-803 [4]): 12.7%
Activity (MGC-803 [5]): Dose-Dependent Effect
Activity (MGC-803 [6]): Active
Activity (MGC-803 [7]): 12.6%
Activity (MGC-803 [8]): Active
Activity (MGC-803 [9]): Active
inhibition (MGC-803 [10]): Dose-Dependent Effect
IC50 (A549): 191 nM
inhibition (MGC-803 [11]): Dose-Dependent Effect
Activity (MGC-803 [12]): 34.5%
Activity (MGC-803 [13]): Dose-Dependent Effect
Activity (MGC-803 [14]): 51.4%
inhibition (Tubulin (Homo sapiens) [15]): Active
IC50 (MCF7): 23 nM
Activity (MGC-803 [16]): Active
Activity (MGC-803 [17]): 13.6%
Activity (MGC-803 [18]): Dose-Dependent Effect
Activity (MGC-803 [19]): Active
Activity (MGC-803 [20]): Dose-Dependent Effect
Activity (MGC-803 [21]): Dose-Dependent Effect
Activity (MGC-803 [22]): Dose-Dependent Effect
inhibition (Tubulin (Homo sapiens) [23]): Active
Activity (MGC-803 [24]): Active
Activity (MGC-803 [25]): Active
IC50 (THP-1): 195 nM
inhibition (MGC-803 [26]): Active
Activity (MGC-803 [27]): Active
Activity (MGC-803 [28]): Active
Activity (MGC-803 [29]): 26%
Activity (MGC-803 [30]): Active
Activity (MGC-803 [31]): Active
IC50 (L02): 556 nM
Activity (MGC-803 [32]): Active
IC50 (Tubulin): 1000 nM
